Molecular target: T1, S proteins of wild-type SARS-CoV-2 virus and the SARS-CoV-2 D614G, B.1.1.7, B.1.351, P1, B.1.617, B.1.617.1, B.1.617.2, and B.1.617.3 variants (Homo sapiens, UniProt Q9BYF1)
T1 construct: purchased Sino Biological Inc. (Mainland China)
Type: binding
Settings: FIG. 10; for ACE2 binding to the S protein: SARS-CoV-2 B.1.617.3 variant (excepted from the dose-dependent decrease); for ACE2 binding to the S proteins: wild-type and D614G, B.1.1.7, B.1.351, P1, B.1.617, B.1.617.1, B.1.617.2 variants

T1 sequence (Q9BYF1 18-740, stated change not applied): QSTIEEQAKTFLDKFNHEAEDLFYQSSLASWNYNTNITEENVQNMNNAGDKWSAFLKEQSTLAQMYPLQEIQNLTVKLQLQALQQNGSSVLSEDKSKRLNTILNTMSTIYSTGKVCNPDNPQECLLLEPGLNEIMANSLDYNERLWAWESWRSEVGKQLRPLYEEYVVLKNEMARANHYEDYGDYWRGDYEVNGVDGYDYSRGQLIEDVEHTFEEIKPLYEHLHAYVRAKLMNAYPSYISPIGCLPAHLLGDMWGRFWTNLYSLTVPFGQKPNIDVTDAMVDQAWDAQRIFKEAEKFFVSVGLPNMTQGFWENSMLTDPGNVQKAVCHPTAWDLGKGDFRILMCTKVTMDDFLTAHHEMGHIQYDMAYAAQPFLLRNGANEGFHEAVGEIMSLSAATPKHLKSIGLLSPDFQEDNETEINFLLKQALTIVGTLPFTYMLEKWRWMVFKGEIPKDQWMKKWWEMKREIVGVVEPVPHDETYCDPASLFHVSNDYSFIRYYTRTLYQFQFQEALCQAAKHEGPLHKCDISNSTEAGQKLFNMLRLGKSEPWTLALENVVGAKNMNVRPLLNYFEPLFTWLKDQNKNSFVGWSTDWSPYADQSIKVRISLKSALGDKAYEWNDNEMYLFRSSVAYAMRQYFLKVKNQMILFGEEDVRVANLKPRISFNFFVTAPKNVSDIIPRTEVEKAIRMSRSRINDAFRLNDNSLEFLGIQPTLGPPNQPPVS

`CCOC(=O)[C@H](CCc1ccccc1)N[C@@H](C)C(=O)N1[C@H](C(=O)O)C[C@@H]2CCC[C@@H]21` [Ramipril] was tested, and the “ACE2 binding to the S protein” value was “except for the SARS-CoV-2 B.1.617.3 variant” and the “ACE2 binding to the S proteins” value was “dose-dependently decrease”.

In the case of `CCC[C@H](N[C@@H](C)C(=O)N1[C@H](C(=O)O)C[C@@H]2CCCC[C@@H]21)C(=O)OCC` [Perindopril], the “ACE2 binding to the S protein” value is reported as “except for the SARS-CoV-2 B.1.617.3 variant” and the “ACE2 binding to the S proteins” value is reported as “dose-dependently decrease”.

Reference: patent US20230266309A1, “PROTEIN MICROARRAY, USE AND DETECTION METHOD THEREOF” (NATIONAL CHENG KUNG UNIVERSITY, priority 2021, published 2023)
